Here are results for two molecules from patent publication US20240366594A1, “Small Molecule Inhibitors of Formation of Neutrophil-Derived Extracellular Traps (NETosis) and Uses Thereof” (The Brigham and Women's Hospital, Inc., priority 2021, published 2024).

Structures are written as SMILES.

One test deals with human neutrophils. The test can be described thus: Citrullinated histone H3 (CitH3) NET induction in PMA-stimulated human neutrophils. It is filed as cell-based. The settings on record: for NET induction, measured as CitH3 staining: drugs 10, 2, 0.4, 0.08 μM or GSK484 10 μM for 1 h, then 1 μM PMA 3 h, FIGS. 1A and 5D. The method, then:
FIGS. 1A-H. Class I/II HDACs drive NET formation • (A and B) Freshly purified human (A) or mouse (B) neutrophils were treated with the indicated HDAC inhibitors at different doses (10, 2, 0.4, 0.08 μM), or with GSK484 (10 μM), for 1 h and then stimulated with 1 μM PMA for 3 h. Cells were fixed and stained with anti-citrullinated histone H3 (CitH3) antibody. NETosis induction was measured as the level of anti-CitH3 fluorescent signal. PMA alone represents 100% of NET induction. “-”: Cells treated with the highest dose of the indicated drug but not activated with PMA. • (C and D) Human neutrophils were treated, or not, with ricolinostat or GSK484 and then stimulated with 1 μM PMA. NETosis induction was measured as area of nuclei stained with DAPI. (C) 3D reconstruction of nuclei in each treatment (grid size 7.8 μm). (D) Quantification of DAPI signal from multiple fields of view (D) (n=9 for unstimulated, not pretreated with any drug [NT] and ricolinostat, n=7 for GSK484). • (E and F) Human neutrophils were treated as in (C-D), and immunoblot analysis of the indicated proteins was performed. Relative quantification of band intensity was analyzed with ImageJ software (F). White violins plots depict the quantification of histone H3 acetylation; red violin plots depict the quantification of histone H3 citrullination. Immunoblot in E is representative of four independent experiments. Gasdermin D NT, gasdermin D N terminal; pMLKL, phospho-MLKL. • (G) Human (left) or murine (right) neutrophils were treated, or not, with ricolinostat (10 μM) and then stimulated with 1 μM PMA for 3 h. ROS production was measured by luminescence with luminol-HRP. Histograms represent the total amount of ROS produced overtime. • (H) Murine neutrophils were treated, or not, with ricolinostat (10 μM) and then stimulated with fluorescent E. coli at the indicated multiplicity of infection (MOI) for 1 h. The histogram represents the percentage of neutrophils positive for E. coli staining. Graphs show mean±SEM. Statistics were calculated using one-way ANOVA (A, B, D) and two-way ANOVA (F, G, H) (*p<0.05; **p<0.01; ****p<0.0001. n.s., not significant). Statistics refers to the comparison with neutrophils stimulated with PMA alone (A, B). Gray stars represent comparison of all experimental groups with the unstimulated control, and black stars represent comparison between drug-treated groups and cells treated with PMA only (NT) (D). See also FIGS. 5A-J.
FIGS. 5A-J. Class I/II HDACs drive NET formation. • A) Quantification of extracellular DNA released by neutrophils treated, or not, with 1 μM GSK484 for 1 h and then stimulated with 1 μM PMA for 4 hours. Unstimulated, neutrophils not treated with drugs were used as a control. • B) Freshly purified human neutrophils were treated with the indicated HDAC inhibitors at different doses (0.08, 0.4, 2 and 10 μM) for 1 hour. Extracellular DNA release was assessed in the supernatant 3 hours after PMA stimulation. The dotted line represents the amount of DNA released from neutrophils treated with PMA alone. “-”: cells treated with the highest dose of the indicated drug but not activated with PMA. • C) Freshly purified human neutrophils were stimulated for 1 h, 3 h or 5 h. Cells were fixed and stained with an anti-CitH3 antibody. NETosis induction was measured as level of anti-CitH3 fluorescent signal. 5h-PMA treatment represents 100% NET induction. • D) Representative images of freshly isolated human neutrophils treated or not with 10 μM of the indicated drugs and stimulated with 1 μM PMA for 3 hours. Cells were fixed and then stained for CitH3 (red) and nuclei (blue). Scale bar=100 μm. • E) Murine neutrophils were treated with ricolinostat or GSK484 and then stimulated with […] for 3 hours. NET induction was measured as in (C). […]

Another test concerns mouse neutrophils. Briefly: Citrullinated histone H3 (CitH3) NET induction in PMA-stimulated mouse neutrophils. Type of test: cell-based. The method, then:
FIGS. 1A-H. Class I/II HDACs drive NET formation • (A and B) Freshly purified human (A) or mouse (B) neutrophils were treated with the indicated HDAC inhibitors at different doses (10, 2, 0.4, 0.08 μM), or with GSK484 (10 μM), for 1 h and then stimulated with 1 μM PMA for 3 h. Cells were fixed and stained with anti-citrullinated histone H3 (CitH3) antibody. NETosis induction was measured as the level of anti-CitH3 fluorescent signal. PMA alone represents 100% of NET induction. “-”: Cells treated with the highest dose of the indicated drug but not activated with PMA. • (C and D) Human neutrophils were treated, or not, with ricolinostat or GSK484 and then stimulated with 1 μM PMA. NETosis induction was measured as area of nuclei stained with DAPI. (C) 3D reconstruction of nuclei in each treatment (grid size 7.8 μm). (D) Quantification of DAPI signal from multiple fields of view (D) (n=9 for unstimulated, not pretreated with any drug [NT] and ricolinostat, n=7 for GSK484). • (E and F) Human neutrophils were treated as in (C-D), and immunoblot analysis of the indicated proteins was performed. Relative quantification of band intensity was analyzed with ImageJ software (F). White violins plots depict the quantification of histone H3 acetylation; red violin plots depict the quantification of histone H3 citrullination. Immunoblot in E is representative of four independent experiments. Gasdermin D NT, gasdermin D N terminal; pMLKL, phospho-MLKL. • (G) Human (left) or murine (right) neutrophils were treated, or not, with ricolinostat (10 μM) and then stimulated with 1 μM PMA for 3 h. ROS production was measured by luminescence with luminol-HRP. Histograms represent the total amount of ROS produced overtime. • (H) Murine neutrophils were treated, or not, with ricolinostat (10 μM) and then stimulated with fluorescent E. coli at the indicated multiplicity of infection (MOI) for 1 h. The histogram represents the percentage of neutrophils positive for E. coli staining. Graphs show mean±SEM. Statistics were calculated using one-way ANOVA (A, B, D) and two-way ANOVA (F, G, H) (*p<0.05; **p<0.01; ****p<0.0001. n.s., not significant). Statistics refers to the comparison with neutrophils stimulated with PMA alone (A, B). […]
FIGS. 5A-J. Class I/II HDACs drive NET formation. • A) Quantification of extracellular DNA released by neutrophils treated, or not, with 1 μM GSK484 for 1 h and then stimulated with 1 μM PMA for 4 hours. […] Extracellular DNA release was assessed in the supernatant 3 hours after PMA stimulation. […] NETosis induction was measured as level of anti-CitH3 fluorescent signal. […] NET induction was measured as in (C). […]

A further test deals with Murine neutrophils. Briefly: Phagocytosis assay with fluorescent E. coli. Particulars: ricolinostat 10 μM, fluorescent E. coli 1 h; FIG. 1H. Type of test: cell-based, mouse. The method, then:
FIGS. 1A-H. Class I/II HDACs drive NET formation • (A and B) Freshly purified human (A) or mouse (B) neutrophils were treated with the indicated HDAC inhibitors at different doses (10, 2, 0.4, 0.08 μM), or with GSK484 (10 μM), for 1 h and then stimulated with 1 μM PMA for 3 h. Cells were fixed and stained with anti-citrullinated histone H3 (CitH3) antibody. NETosis induction was measured as the level of anti-CitH3 fluorescent signal. PMA alone represents 100% of NET induction. “-”: Cells treated with the highest dose of the indicated drug but not activated with PMA. • (C and D) Human neutrophils were treated, or not, with ricolinostat or GSK484 and then stimulated with 1 μM PMA. NETosis induction was measured as area of nuclei stained with DAPI. (C) 3D reconstruction of nuclei in each treatment (grid size 7.8 μm). (D) Quantification of DAPI signal from multiple fields of view (D) (n=9 for unstimulated, not pretreated with any drug [NT] and ricolinostat, n=7 for GSK484). • (E and F) Human neutrophils were treated as in (C-D), and immunoblot analysis of the indicated proteins was performed. Relative quantification of band intensity was analyzed with ImageJ software (F). White violins plots depict the quantification of histone H3 acetylation; red violin plots depict the quantification of histone H3 citrullination. […] ROS production was measured by luminescence with luminol-HRP. […]

With `COc1cc(C(=O)N2CC[C@@H](O)[C@@H](N)C2)cc2nc(-c3cc4ccccc4n3CC3CC3)n(C)c12` [GSK484], the “NET induction, measured as CitH3 staining” value in the test on human neutrophils is listed as “dramatically reduced NET induction”.

In the case of `O=C(CCCCCCNC(=O)c1cnc(N(c2ccccc2)c2ccccc2)nc1)NO` [ricolinostat], the “release of CitH3 (NET induction)” value in the test on mouse neutrophils (drugs 10, 2, 0.4, 0.08 μM for 1 h, then 1 μM PMA 3 h, FIG. 1B) is “efficiently decreased”. For the same molecule, the “NET formation (level of CitH3)” value in the test on mouse neutrophils (murine neutrophils, PMA, FIG. 5J) is listed as “inhibited NET formation to a comparable extent”. In addition, the “bacterial phagocytosis (percentage of neutrophils positive for E. coli)” value in the test with Murine neutrophils is given as “excluded that ricolinostat administration altered”. Besides, the “NET formation (level of CitH3), two independent donors” value in the test with human neutrophils (10, 2, 0.4, 0.08 μM for 1 h, then 1 μM PMA, FIGS. 5H, 5I) is reported as “inhibited NET formation to a comparable extent”. Besides, the “NETosis (anti-CitH3 signal), comparison of class I/IIb and class IIb selective inhibitors” value in the test with human neutrophils (drugs 10, 2, 0.4, 0.08 μM 1 hour, then 1 μM PMA 3 hours, FIG. 5F) was “class I/IIb HDAC inhibition prevented NETosis”. Also, the “NET induction, measured as CitH3 staining” value with human neutrophils is reported as “prevented NET release in a dose-dependent manner with an efficacy comparable with GSK484”.
